The target of the assay is T1, Human factor D (Homo sapiens, UniProt P00746).
T1 construct: purified from human serum; purchased Complement Technology, Inc; host or cells: human serum (natural source)
Put plainly: biochemical.

T1 sequence (P00746 26-253): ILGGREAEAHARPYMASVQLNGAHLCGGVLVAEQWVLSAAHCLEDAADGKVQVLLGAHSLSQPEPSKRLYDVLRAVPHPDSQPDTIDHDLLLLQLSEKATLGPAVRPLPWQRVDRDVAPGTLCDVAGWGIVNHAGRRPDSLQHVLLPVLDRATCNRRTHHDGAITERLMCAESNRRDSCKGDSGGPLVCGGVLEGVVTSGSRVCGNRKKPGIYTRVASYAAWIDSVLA

For the molecule `CCOP(=O)(OCC)c1ccc2c(C(C)=O)cn(CC(=O)N3[C@@H]4CCC[C@@H]4C[C@H]3C(=O)NCc3cccc(Cl)c3F)c2c1` [Compound 5, diethyl 3-acetyl-1-(2-((2S,3aR,6aR)-2-(3-chloro-2-fluorobenzylcarbamoyl)hexahydrocyclopenta [b]pyrrol-1(2H)-yl)-2-oxoethyl)-1H-indol-6-ylphosphonate], the IC50 lay within 1 to 10 µM.

By IC50 is commonly meant the concentration that inhibits the measured activity by half.

The record behind these values is patent US20160362432A1 (priority 2014, published 2016).
